Reference: patent US12479843B2, “Spiro ring-containing quinazoline compounds” (WIGEN BIOMEDICINE TECHNOLOGY (SHANGHAI) CO., LTD., priority 2019, dated 2025)

Columns and labels:
pERK level in H358 cells = assay: pERK and ERK protein content assay in H358 cells (ELISA); assay type: cell-based; details: Homo sapiens, NCI-H358, compound 1 μM, 24 h, pERK/ERK ratio compared with DMSO group, read-out: Inhibition rate (%) of pERK level
Procedure: H358 cells were seeded in a 24-well plate. After one day of growth, a test compound (at a concentration of 1 μM) was added. After 24 h of action of the compound, the cells were lysed, and the cell lysate was transferred to a 96-well ELISA plate. The levels of pERK and ERK in the lysate were measured using an ELISA kit (abcam 176660). The ratio of pERK to ERK was calculated and compared with that of the DMSO group, and the percentage of inhibition of pERK activity by the compound was calculated.

H358 cells = assay: Antiproliferative activity against H358 cells (Cell Titer Glow, ultra-low attachment plate); assay type: cell-based; details: Homo sapiens, NCI-H358, 72 h, 96-well ultra-low attachment plate, three days after addition of compound, Cell Titer Glow
Procedure: 2500 H358 cells were seeded in a 96-well ultra-low attachment plate (corning, 7007). After one day of growth, a serially diluted compound (a maximum concentration of 5 μM, 5-fold dilution, a total of five doses) was added. Three days after the addition of the compound, Cell Titer Glow (Promega, G9681) was added to evaluate pellet growth, and the IC50 value was calculated.

Row | Compound | inhibition at 1 µM (pERK level in H358 cells) | IC50 (H358 cells)
1 | C=C(F)C(=O)N1CC2(CCN(c3nc(O[C@H]4CCN(C)C4)nc4c(OCC(F)(F)F)c(-c5c(C)ccc6[nH]ncc56)c(C5CC5)cc34)CC2)C1 [Compound 64] | 50 to 90% | 0.3 to 1 µM
2 | C=CC(=O)N1CC2(CCN(c3nc(N4CC(N5C6CCC5CC6)C4)nc4c(OCC(F)(F)F)c(-c5c(C)c(C)cc6[nH]ncc56)c(C5CC5)cc34)CC2)C1 [Compound 326] | > 90% | < 0.3 µM
3 | C=CC(=O)N1CC2(CCN(c3nc(N4CC(N5CCC5)C4)nc4c(OCC(F)(F)F)c(-c5c(C)c(F)cc6[nH]ncc56)c(C=C)cc34)CC2)C1 [Compound 223] | > 90% | < 0.3 µM
4 | C=CC(=O)N1CC2(CCN(c3nc(OC4CC5CCC4N5CCOC)nc4c(OCC(F)(F)F)c(-c5c(C)ccc6[nH]ncc56)c(C5CC5)cc34)CC2)C1 (centres unmarked) [Compound 309] | > 90% | < 0.3 µM
5 | C=CC(=O)N1CC2(CCN(c3nc(N4CC[C@@H](N5CCOCC5)C4)nc4c(OCC(F)(F)F)c(-c5c(C)ccc6[nH]ncc56)c(C5CC5)cc34)CC2)C1 [Compound 210] | > 90% | < 0.3 µM
6 | C=CC(=O)N1CC2(CCN(c3nc(N4CC(N(CC)CC)C4)nc4c(OCC(F)(F)F)c(-c5c(C)ccc6[nH]ncc56)c(C5CC5)cc34)CC2)C1 [Compound 166] | > 90% | < 0.3 µM
7 | C=C(C(=O)N1CC2(CCN(c3nc(OC4CCN(CCOC)CC4)nc4c(OCC(F)(F)F)c(-c5c(C)ccc6[nH]ncc56)c(C5CC5)cc34)CC2)C1)n1ccnn1 [Compound 25] | > 90% | < 0.3 µM
8 | C=C(C(=O)N1CC2(CCN(c3nc(OC4CCN(CCOC)CC4)nc4c(OCC(F)(F)F)c(-c5c(C)ccc6[nH]ncc56)c(C5CC5)cc34)CC2)C1)n1ccnc1 [Compound 22] | 50 to 90% | 0.3 to 1 µM
9 | C=CC(=O)N1CC2(CCN(c3nc(N4CC5(C4)[C@H](O)CCN5C)nc4c(OCC(F)(F)F)c(-c5c(C)ccc6[nH]ncc56)c(C5CC5)cc34)CC2)C1 [Compound 272] | > 90% | < 0.3 µM
10 | C=CC(=O)N1CC2(CCN(c3nc(N4CC(N5CCC(OC)CC5)C4)nc4c(OCC(F)(F)F)c(-c5c(C)ccc6[nH]ncc56)c(C5CC5)cc34)CC2)C1 [Compound 179] | > 90% | < 0.3 µM
11 | C=CC(=O)N1CC2(CCN(c3nc(OC4CCS(=O)(=O)C5(CC5)C4)nc4c(OCC(F)(F)F)c(-c5c(C)ccc6[nH]ncc56)c(C5CC5)cc34)CC2)C1 (centres unmarked) [Compound 310] | 50 to 90% | 0.3 to 1 µM
12 | C=CC(=O)N1CC2(CCN(c3nc(N(C)CCN4CC[C@H](O)C4)nc4c(OCC(F)(F)F)c(-c5c(C)ccc6[nH]ncc56)c(C5CC5)cc34)CC2)C1 [Compound 234] | > 90% | < 0.3 µM
13 | C=CC(=O)N1CC2(CCN(c3nc(N4CC5(CC(C#N)C5)C4)nc4c(OCC(F)(F)F)c(-c5c(C)ccc6[nH]ncc56)c(C5CC5)cc34)CC2)C1 [Compound 285] | 50 to 90% | 0.3 to 1 µM
14 | C=CC(=O)N1CC2(CCN(c3nc(N4CC5(CCN(CC(F)(F)F)CC5)C4)nc4c(OCC(F)(F)F)c(-c5c(C)ccc6[nH]ncc56)c(C5CC5)cc34)CC2)C1 [Compound 85] | > 90% | 0.3 to 1 µM
15 | C=CC(=O)N1CC2(CCN(c3nc(N4CC(N5C[C@@H](C)[C@@H](O)C5)C4)nc4c(OCC(F)(F)F)c(-c5c(C)ccc6[nH]ncc56)c(C5CC5)cc34)CC2)C1 [Compound 265] | > 90% | < 0.3 µM
16 | C=CC(=O)N1CC2(CCN(c3nc(N4CC(N5C6CCC5CC6)C4)nc4c(OCC)c(-c5c(C)ccc6[nH]ncc56)c(C5CC5)cc34)CC2)C1 [Compound 332] | > 90% | < 0.3 µM
17 | C=C(F)C(=O)N1CC2(CCN(c3nc(OC4CCN(CCOC)CC4)nc4c(OCC(F)(F)F)c(-c5c(N)c(Cl)cc(Cl)c5F)c(C5CC5)cc34)CC2)C1 [Compound 50] | > 90% | < 0.3 µM
18 | C=CC(=O)N1CC2(CCN(c3nc(N4CC(N5CC(S(C)(=O)=O)C5)C4)nc4c(OCC(F)(F)F)c(-c5c(C)ccc6[nH]ncc56)c(C5CC5)cc34)CC2)C1 [Compound 241] | 50 to 90% | 0.3 to 1 µM
19 | C=CC(=O)N1CC2(CCN(c3nc(N4CC(N5CC(C)C5)C4)nc4c(OCC(F)(F)F)c(-c5c(C)ccc6[nH]ncc56)c(C5CC5)cc34)CC2)C1 [Compound 237] | > 90% | < 0.3 µM
20 | C=CC(=O)N1CC2(CCN(c3nc(OC4CCN(CCOC)CC4)nc4c(OCC(F)(F)F)c(-c5cc(O)ccc5Cl)c(C5CC5)cc34)CC2)C1 [Compound 58] | > 90% | < 0.3 µM

Row | Compound | inhibition at 1 µM (pERK level in H358 cells) | IC50 (H358 cells)
21 | C=C(F)C(=O)N1CC2(CCN(c3nc(OC4CCN(CCOC)CC4)nc4c(OCC(F)(F)F)c(-c5c(C)ccc6cc[nH]c(=O)c56)c(C5CC5)cc34)CC2)C1 [Compound 42] | > 90% | 0.3 to 1 µM
22 | C=CC(=O)N1CC2(CCN(c3nc(N4CC5(CC(N6CC[C@@H](C)C6)C5)C4)nc4c(OCC(F)(F)F)c(-c5c(C)ccc6[nH]ncc56)c(C5CC5)cc34)CC2)C1 [Compound 293] | > 90% | < 0.3 µM
23 | C=C(F)C(=O)N1CC2(CCN(c3nc(N4CCC5(CCN(CCOC)CC5)C4)nc4c(OCC(F)(F)F)c(-c5c(C)ccc6[nH]ncc56)c(C5CC5)cc34)CC2)C1 [Compound 102] | > 90% | < 0.3 µM
24 | C=CC(=O)N1CC2(CCN(c3nc(N4CC(N(C)CC)C4)nc4c(OCC(F)(F)F)c(-c5c(C)ccc6[nH]ncc56)c(C5CC5)cc34)CC2)C1 [Compound 165] | > 90% | < 0.3 µM
25 | C=CC(=O)N1CC2(CCN(c3nc(N(C)CCN4CC[C@H](C)C4)nc4c(OCC(F)(F)F)c(-c5c(C)ccc6[nH]ncc56)c(C5CC5)cc34)CC2)C1 [Compound 233] | > 90% | < 0.3 µM
26 | C=CC(=O)N1CC2(CCN(c3nc(N4CC[C@H](N5C6CCC5CC6)C4)nc4c(OCC(F)(F)F)c(-c5c(C)ccc6[nH]ncc56)c(C5CC5)cc34)CC2)C1 [Compound 302] | > 90% | < 0.3 µM
27 | C=CC(=O)N1CC2(CCN(c3nc(N4CC(N5CC[C@@H](OC)C5)C4)nc4c(OCC(F)(F)F)c(-c5c(C)ccc6[nH]ncc56)c(C5CC5)cc34)CC2)C1 [Compound 175] | > 90% | < 0.3 µM
28 | C=CC(=O)N1CC2(CCN(c3nc(N(C)CCN4CC(C)C4)nc4c(OCC(F)(F)F)c(-c5c(C)ccc6[nH]ncc56)c(C5CC5)cc34)CC2)C1 [Compound 227] | > 90% | < 0.3 µM
29 | C=C(C(=O)N1CC2(CCN(c3nc(OC4CCN(CCOC)CC4)nc4c(OCC(F)(F)F)c(-c5c(C)ccc6[nH]ncc56)c(C5CC5)cc34)CC2)C1)n1cccc1 [Compound 24] | 50 to 90% | 0.3 to 1 µM
30 | C=CC(=O)N1CC2(CCN(c3nc(OC4C(C)CS(=O)(=O)CC4C)nc4c(OCC(F)(F)F)c(-c5c(C)ccc6[nH]ncc56)c(C5CC5)cc34)CC2)C1 (centres unmarked) [Compound 317] | > 90% | < 0.3 µM
31 | C=CC(=O)N1CC2(CCN(c3nc(OC4CCN(CCOC)CC4)nc4c(OCC(F)(F)F)c(-c5c(N)c(Cl)cc(Cl)c5F)c(C5CC5)cc34)CC2)C1 [Compound 49] | > 90% | < 0.3 µM
32 | C=C(F)C(=O)N1CC2(CCN(c3nc(OC4CCN(CCOC)CC4)nc4c(OCC(F)F)c(-c5c(C)ccc6[nH]ncc56)c(C5CC5)cc34)CC2)C1 [Compound 3] | > 90% | < 0.3 µM
33 | C=CC(=O)N1CC2(CCN(c3nc(OC4CCN(CCOC)CC4)nc4c(OCC(F)(F)F)c(-c5c(C)ccc6cc[nH]c(=O)c56)c(C5CC5)cc34)CC2)C1 [Compound 41] | > 90% | < 0.3 µM
34 | C=CC(=O)N1CC2(CCN(c3nc(N4CC[C@H](N5CCC(C)C5)C4)nc4c(OCC(F)(F)F)c(-c5c(C)ccc6[nH]ncc56)c(C5CC5)cc34)CC2)C1 (some centres unmarked) [Compound 298] | > 90% | < 0.3 µM
35 | C=CC(=O)N1CC2(CCN(c3nc(N4CC[C@@H](N5CC(F)(F)C5)C4)nc4c(OCC(F)(F)F)c(-c5c(C)ccc6[nH]ncc56)c(C5CC5)cc34)CC2)C1 [Compound 206] | 50 to 90% | 0.3 to 1 µM
36 | C=CC(=O)N1CC2(CCN(c3nc(OC4CCN(CCOC)CC4)nc4c(N5CCC5)c(-c5c(C)ccc6[nH]ncc56)c(C5CC5)cc34)CC2)C1 [Compound 8] | 50 to 90% | 0.3 to 1 µM
37 | C=CC(=O)N1CC2(CCN(c3nc(OC4CCC5(CC4)CN(CCOC)C5)nc4c(OCC(F)(F)F)c(-c5c(C)ccc6[nH]ncc56)c(C5CC5)cc34)CC2)C1 [Compound 137] | > 90% | < 0.3 µM
38 | C=C(F)C(=O)N1CC2(CCN(c3nc(N4CCN(C5COC5)CC4)nc4c(OCC(F)(F)F)c(-c5c(C)ccc6[nH]ncc56)c(C5CC5)cc34)CC2)C1 [Compound 153] | > 90% | < 0.3 µM
39 | C=CC(=O)N1CC2(CCN(c3nc(N4CC(N5C[C@H](O)[C@@H](F)C5)C4)nc4c(OCC(F)(F)F)c(-c5c(C)ccc6[nH]ncc56)c(C5CC5)cc34)CC2)C1 [Compound 261] | > 90% | < 0.3 µM
40 | C=CC(=O)N1CC2(CCN(c3nc(N4CCC5(CCN(CCOC)CC5)CC4)nc4c(OCC(F)(F)F)c(-c5c(C)ccc6[nH]ncc56)c(C5CC5)cc34)CC2)C1 [Compound 107] | 50 to 90% | 0.3 to 1 µM
